Measured values published in patent US6359009B1, “Substituted anilide insecticidal agents” (BASF Aktiengesellschaft, priority 1998, dated 2002).

Key:
[1] = system: Diabrotica undecimrunctata howardi, 3rd instar southern corn rootworm; assay: Evaluation against 3rd instar southern corn rootworm, treated talc/soil jar test, mortality after 5 days; type: in vivo, Diabrotica undecimpunctata howardi; conditions: mortality rating 0-9 after 5 days in soil
Method: (§1) Test solutions are prepared by dissolving the test compound in a 35% acetone in water mixture to give a concentration of 10,000 ppm. Subsequent dilutions are made with water as needed.
Diabrotica undecimrunctata howardi, 3rd instar southern corn rootworm
(§2) One cc of fine talc is placed in a 30 mL wide-mouth screw-top glass jar. One mL of the appropriate acetone test solution is pipetted onto the talc so as to provide 1.25 mg, 0.25 mg or 0.025 mg of active ingredient per jar. The jars are set under a gentle air flow until the acetone is evaporated. The dried talc is loosened, 1 cc of millet seed is added to serve as food for the insects and 25 mL of moist soil is added to each jar. The jar is capped and the contents thoroughly mixed mechanically. Following this, ten 3rd instar rootworms are added to each jar and the jars are loosely capped to allow air exchange for the larvae. The treatments are held for 5 days when mortality counts are made. Missing larvae are presumed dead, since they decompose rapidly and can not be found.

[2] = system: Diabrotica virgifera virgifera Leconte, 3rd instar western corn rootworm; assay: Evaluation against 3rd instar western corn rootworm, treated talc/soil jar test, mortality after 5 days; type: in vivo; conditions: mortality rating 0-9 after 5 days in soil
Method: as §1
Diabrotica virgifera virgifera Leconte, 3rd instar western corn rootworm
as §2

Row | SMILES | Southern Corn Rootworm (1 ppm) rating [1] | Southern Corn Rootworm (10 ppm) rating [1] | Southern Corn Rootworm (50 ppm) rating [1] | Western Corn Rootworm (1 ppm) rating ([2]; 1 ppm) | Western Corn Rootworm (10 ppm) rating ([2]; 10 ppm) | Western Corn Rootworm (50 ppm) rating ([2]; 50 ppm)
1 | CC(C)C(=O)C(C)(C)C(=O)N(C(=O)c1c(F)cccc1F)c1ccc(C(F)(F)F)cc1 [Compound 8, α,α,α,2,6-Pentafluoro-N-(2,2,4#trimethyl-3 oxovaleryl)-p-benzotoluidide] | 0.0 | 0.0 | 4.0 |  |  | 
2 | CC(=O)OC(C(C)C)C(C)(C)C(=O)Nc1ccc(Cl)cc1 (stereo not shown) [Compound 14, 4′-chloro-3-hydroxy-2,2,4-trimethylvaleranilide, acetate (ester)] | 9.0 | 9.0 | 9.0 |  |  | 
3 | CC(C)C(=O)C(C)(C)C(=O)N(C)c1ccc(Cl)cc1 [Compound 2, 4′-Chloro-N,2,2,4-tetramethyl-3-oxo-valeranilide] | 0.0 | 0.0 | 3.5 |  |  | 
4 | CC(C)SC(C)(C)C(=O)Nc1ccc(C(F)(F)F)cc1 [Compound 5, α,α,α-Trifluoro-2-(isopropylthio)-2-methyl-p-propionotoluidide] | 0.0 | 0.0 | 9.0 |  |  | 
5 | CC(C)C(=O)C(C)(C)C(=O)N(C(=O)c1ccc(C(F)(F)F)cc1)c1ccc(C(F)(F)F)cc1 [Compound 6, α,α,α,α′,α′,α′-Hexafluoro-N-(2,2,4-trimethyl-3-oxovaleryl)-p-tolu-p-toluidide] | 2.0 | 9.0 | 9.0 |  |  | 
6 | CC(C)C(O)C(C)(C)C(=O)Nc1ccc(C(F)(F)F)cc1 (stereo not drawn) [Compound 4, α,α,α-Trifluoro-3-hydroxy-2,2,4-trimethyl-p-valerotoluidide] | 0.0 | 0.0 | 9.0 |  |  | 
7 | CC(C)[S+]([O-])C(C)(C)C(=O)Nc1ccc(C(F)(F)F)cc1 (stereo not drawn) [Compound 12, α,α,α-Trifluoro-2-(isopropylsulfinyl)-2-methyl-p-propionotoluidide] | 8.0 | 9.0 | 9.0 | 0.0 | 0.0 | 9.0
8 | CC(C)S(=O)(=O)C(C)(C)C(=O)Nc1ccc(C(F)(F)F)cc1 [Compound 13, α,α,α-Trifluoro-2-(isopropylsulfonyl)-2-methyl-p-propionotoluidide] | 3.0 | 9.0 | 9.0 |  |  | 
9 | CC(C)C(=O)C(C)(C)C(=O)N(C(=O)c1ccc(Cl)cc1)c1ccc(C(F)(F)F)cc1 [Compound 7, 4-Chloro-α,α,α-trifluoro-N-(2,2,4-trimethyl-3 oxovaleryl)-p-benzotoluidide] | 0.0 | 9.0 | 9.0 |  |  | 
10 | CC(C)C(O)C(C)(C)C(=O)Nc1ccc(Cl)cc1 (stereo not shown) [Compound 3, 4′-chloro-3-hydroxy-2,2,4-trimethylvaleranilide] | 0.0 | 4.0 | 8.0 |  |  | 
11 | CC(=O)OC(C(C)C)C(C)(C)C(=O)Nc1ccc(C(F)(F)F)cc1 (stereo not drawn) [Compound 9, α,α,α-Trifluoro-3-hydroxy-2,2,4-trimethyl-p-valerotoluidide, acetate (ester)] | 0.0 | 8.3 | 8.3 |  |  | 
12 | CC(C)(C(=O)Nc1ccc(C(F)(F)F)cc1)C(=O)C(C)(C)c1ccccc1 [Compound 11, α,α,α-Trifluoro-2,2,4-trimethyl-3-oxo-4-phenyl-p-valerotoluidide] |  |  | 6.0 |  |  | 
